Test results taken from patent US8710089B2, “Triazole derivatives as ghrelin analogue ligands of growth hormone secretagogue receptors” (Zentaris GmbH, priority 2005, dated 2014).
pIC50: −log10 of the molar value.

Each compound was assayed against T1, human GHS-R 1a (Homo sapiens, UniProt Q92847) (assay: GHS-R 1a receptor-ligand binding assay (membrane preparations from transfected LLC PK-1 cells)). Settings: displacement of 125I-His9-ghrelin (60 pM); membranes of LLC PK-1 cells transfected with human GHS-R 1a; mean of at least two independent experiments in triplicates.
T1 construct: expressed in transfected cells; host or cells: LLC PK-1 porcine renal epithelial cells (ECACC No. 86121112), isolated plasma membranes
Procedure: (J. Med. […] Med. Chem. 2003, 46: 1191-1203), were incubated in homogenization buffer HB [50 mM Tris (pH 7.3), 5 mM MgCl2, 2.5 mM EDTA, and 30 μg/mL bacitracin (Sigma)] for 60 min at 25° C. (steady-state conditions) with 60 pM ^125I-[…]-ghrelin (Amersham) in the presence or absence of competing compounds (compounds of the invention). […] Nonspecific binding was defined using an excess (10^-6 M) of ghrelin. The binding reaction was stopped by addition of 4 mL of ice-cold HB followed by rapid filtration over Whatman GP/C filters presoaked with 0.5% polyethyleneimine to prevent excessive binding of radioligand to the filters. […] IC50 values given are the mean of at least two independent experiments performed in triplicates.

T1 sequence (Q92847 whole entry): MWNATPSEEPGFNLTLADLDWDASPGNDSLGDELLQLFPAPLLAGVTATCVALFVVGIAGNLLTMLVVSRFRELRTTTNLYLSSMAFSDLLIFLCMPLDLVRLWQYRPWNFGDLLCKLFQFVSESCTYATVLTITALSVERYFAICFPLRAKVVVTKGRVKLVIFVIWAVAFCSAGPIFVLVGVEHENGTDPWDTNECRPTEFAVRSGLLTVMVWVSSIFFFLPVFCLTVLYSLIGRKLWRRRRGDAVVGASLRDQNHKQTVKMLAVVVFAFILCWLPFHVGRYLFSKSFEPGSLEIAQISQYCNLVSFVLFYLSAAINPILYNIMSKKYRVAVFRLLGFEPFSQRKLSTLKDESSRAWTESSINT

Row | Structure (SMILES) | pIC50
1 | Cc1ccc(Cn2c(CCCc3ccccc3)nnc2[C@@H](Cc2c[nH]c3ccccc23)NC(=O)C(C)(C)N)cc1 [compound 33, (R)—N-(1-(4-(4-methylbenzyl)-5-(3-phenylpropyl)-4H-1,2,4-triazol-3-yl)-2-(1H-indol-3-yl)ethyl)-2-amino-2-methylpropanamide] | 7.52
2 | COC(=O)CCn1nnnc1[C@@H](Cc1c[nH]c2ccccc12)NC(=O)C(C)(C)N [Example 3 from WO 00/54729 A2, (R)—N-(1-(1-methylpropanoate-tetrazol-5-yl)-2-(1H-indol-3-yl)ethyl)-2-amino-2-methylpropanamide, reference compound] | ~5.52
3 | COc1ccc(Cn2c(CCc3ccccc3)nnc2[C@@H](Cc2c[nH]c3ccccc23)NC(=O)C2CNCCN2)c(OC)c1 (stereo partly shown) [compound 67] | 7.46
4 | CCc1ccc(-n2c(CCc3c[nH]c4ccccc34)nnc2[C@@H](Cc2c[nH]c3ccccc23)NC(=O)Cc2ccccn2)cc1 [compound 148, N—((R)-1-(5-(2-(1H-indol-3-yl)ethyl)-4-(4-ethylphenyl)-4H-1,2,4-triazol-3-yl)-2-(1H-indol-3-yl)ethyl)-2-(pyridin-2-yl)acetamide] | 7.02
5 | O=C(N[C@H](Cc1c[nH]c2ccccc12)c1nnc(CCc2ccccc2)n1-c1ccccc1)c1ccccn1 [compound 146, N—((R)-2-(1H-indol-3-yl)-1-(5-phenethyl-4-phenyl-4H-1,2,4-triazol-3-yl)ethyl)picolinamide] | 6.98
6 | COc1ccc(Cn2c(CCc3ccccc3)nnc2[C@@H](Cc2c[nH]c3ccccc23)NC(=O)c2cnccn2)c(OC)c1 [compound 66, (R)—N-(1-(4-(2,4-dimethoxybenzyl)-5-phenethyl-4H-1,2,4-triazol-3-yl)-2-(1H-indol-3-yl)ethyl)pyrazine-2-carboxamide] | 8.10
7 | CC(C)(N)C(=O)N[C@H](Cc1c[nH]c2ccccc12)c1nnc(CCc2ccccc2)n1Cc1ccccc1 [compound 173, N—((R)-1-(4-benzyl-5-phenethyl-4H-1,2,4-triazol-3-yl)-2-(1H-indol-3-yl)ethyl)-2-amino-2-methylpropanamide] | 6.94
8 | COc1ccc(Cn2c(CCc3c[nH]c4ccccc34)nnc2[C@@H](Cc2c[nH]c3ccccc23)NC(=O)C2CCNCC2)cc1 [compound 45, (R)—N-(1-(5-(2-(1H-indol-3-yl)ethyl)-4-(4-methoxybenzyl)-4H-1,2,4-triazol-3-yl)-2-(1H-indol-3-yl)ethyl)piperidine-4-carboxamide] | 9.52
9 | O=C(N[C@H](Cc1c[nH]c2ccccc12)c1nnc(CCc2c[nH]c3ccccc23)n1-c1ccccc1)C1CCNCC1 [compound 158, N—((R)-1-(5-(2-(1H-indol-3-yl)ethyl)-4-phenyl-4H-1,2,4-triazol-3-yl)-2-(1H-indol-3-yl)ethyl)piperidine-4-carboxamide] | 7.15
10 | COc1ccc(Cn2c(CCc3ccccc3)nnc2[C@@H](Cc2c[nH]c3ccccc23)NC(=O)C2CCCCC2)cc1 [compound 53, (R)—N-(1-(4-(4-methoxybenzyl)-5-phenethyl-4H-1,2,4-triazol-3-yl)-2-(1H-indol-3-yl)ethyl)cyclohexanecarboxamide] | 7.74
11 | COc1ccc(Cn2c(CCc3ccccc3)nnc2[C@@H](Cc2c[nH]c3ccccc23)NC(=O)[C@H]2CCCCN2)c(OC)c1 [compound 63, (R)—N—((R)-1-(4-(2,4-dimethoxybenzyl)-5-phenethyl-4H-1,2,4-triazol-3-yl)-2-(1H-indol-3-yl)ethyl)piperidine-2-carboxamide] | 6.68
12 | COc1ccc(Cn2c(CCc3c[nH]c4ccccc34)nnc2[C@@H](Cc2c[nH]c3ccccc23)NC(=O)Cc2ccccn2)cc1 [compound 91, (R)—N-(1-(5-(2-(1H-indol-3-yl)ethyl)-4-(4-methoxybenzyl)-4H-1,2,4-triazol-3-yl)-2-(1H-indol-3-yl)ethyl)-2-(pyridin-2-yl)acetamide] | 7.96
13 | COc1ccc(Cn2c(CCc3ccccc3)nnc2[C@@H](Cc2c[nH]c3ccccc23)NC(=O)C2CCNCC2)c(OC)c1 [compound 62, (R)—N-(1-(4-(2,4-dimethoxybenzyl)-5-phenethyl-4H-1,2,4-triazol-3-yl)-2-(1H-indol-3-yl)ethyl)piperidine-4-carboxamide] | 9.05
14 | COc1ccc(Cn2c(CCc3c[nH]c4ccccc34)nnc2[C@@H](Cc2c[nH]c3ccccc23)NC(=O)C2CCCNC2)c(OC)c1 (stereo partly drawn) [compound 32, (R)—N-(1-(5-(2-(1H-indol-3-yl)ethyl)-4-(2,4-dimethoxybenzyl)-4H-1,2,4-triazol-3-yl)-2-(1H-indol-3-yl)ethyl)piperidine-3-carboxamide] | 7.99
15 | COc1ccc(Cn2c(CCc3ccccc3)nnc2[C@@H](Cc2c[nH]c3ccccc23)NC(=O)[C@@H]2C[C@@H](O)CN2)cc1 [compound 40, (2S,4R)—N—((R)-1-(4-(4-methoxybenzyl)-5-phenethyl-4H-1,2,4-triazol-3-yl)-2-(1H-indol-3-yl)ethyl)-4-hydroxypyrrolidine-2-carboxamide] | 6.60
16 | COc1ccc(Cn2c(CCc3c[nH]c4ccccc34)nnc2[C@H](Cc2c[nH]c3ccccc23)NC(=O)C(C)(C)N)c(OC)c1 [compound 18, (S)—N-(1-(5-(2-(1H-indol-3-yl)ethyl)-4-(2,4-dimethoxybenzyl)-4H-1,2,4-triazol-3-yl)-2-(1H-indol-3-yl)ethyl)-2-amino-2-methylpropanamide] | 7.08
17 | COc1ccc(Cn2c(CCc3ccccc3)nnc2[C@@H](Cc2c[nH]c3ccccc23)NC(=O)[C@@H](N)Cc2ccccc2)cc1 [compound 186, (2S)—N—((R)-1-(4-(4-methoxybenzyl)-5-phenethyl-4H-1,2,4-triazol-3-yl)-2-(1H-indol-3-yl)ethyl)-2-amino-3-phenylpropanamide] | 6.76
18 | CCc1ccc(Cn2c(CCc3ccccc3)nnc2[C@@H](Cc2c[nH]c3ccccc23)NC(=O)c2cnccn2)cc1 [compound 85, (R)—N-(1-(4-(4-ethylbenzyl)-5-phenethyl-4H-1,2,4-triazol-3-yl)-2-(1H-indol-3-yl)ethyl)pyrazine-2-carboxamide] | 7.05
19 | COc1ccc(Cn2c(CCc3ccccc3)nnc2[C@@H](Cc2c[nH]c3ccccc23)NC(=O)c2ccncc2)cc1 [compound 77, (R)—N-(1-(4-(4-methoxybenzyl)-5-phenethyl-4H-1,2,4-triazol-3-yl)-2-(1H-indol-3-yl)ethyl)isonicotinamide] | 6.92
20 | Cc1ccc(Cn2c(CCc3ccccc3)nnc2[C@@H](Cc2c[nH]c3ccccc23)NC(=O)C(C)(C)N)cc1 [compound 37, (R)—N-(1-(4-(4-methylbenzyl)-5-phenethyl-4H-1,2,4-triazol-3-yl)-2-(1H-indol-3-yl)ethyl)-2-amino-2-methylpropanamide] | 6.87
21 | COc1ccc(-n2c(CCc3ccccc3)nnc2[C@@H](Cc2c[nH]c3ccccc23)NC(=O)C2CCNCC2)c(OC)c1 [compound 163, N—((R)-2-(1H-indol-3-yl)-1-(4-(2,4-dimethoxyphenyl)-5-phenethyl-4H-1,2,4-triazol-3-yl)ethyl)piperidine-4-carboxamide] | 7.20
22 | COc1cccc(Cn2c(CCCc3c[nH]c4ccccc34)nnc2[C@@H](Cc2c[nH]c3ccccc23)NC(=O)C(C)(C)N)c1 [compound 10, (R)—N-(1-(5-(3-(1H-indol-3-yl)propyl)-4-(3-methoxybenzyl)-4H-1,2,4-triazol-3-yl)-2-(1H-indol-3-yl)ethyl)-2-amino-2-methylpropanamide] | 7.49
